Key:
[1] = Solubility of the peptides in water and organic solvents; format: physicochemical
[2] = Stability of nucleic acid-containing peptide particles in water and at physiological salt strength; format: physicochemical
Source text: It should be noted that a mixture of CD3 peptides and nucleic acid molecules can self-assemble to form stable particles in pure water; however, they are generally not stable and dissolve, responding to increasing salt strengths and higher temperatures.
Accordingly, in some embodiments, a mixture of fully-acetylated amphiphilic peptides (e.g., CD3ac peptides), partially-acetylated or non-acetylated amphiphilic peptides (e.g., CD3 peptides) and nucleic acid molecules can be prepared to form stable peptide particles containing nucleic acid molecules (e.g., DNA or RNA including siRNA). […] It was determined that the presence of CD3ac peptides stabilizes ssDNA-containing peptide particles at physiological conditions. All the three components co-precipitated to form ssDNA-containing peptide particles that were stable at the corresponding salt strength.

[3] = Size of CD3ac beads by SEM and dynamic light scattering; format: physicochemical; details: SEM and DLS; initially dissolved CD3ac 123×10^−6 M
Experimental: Scanning electron microscopy (SEM) was carried out on a Hitachi S-4800. SEM sample holders were cooled to −196° C. before a drop of the bead suspension was directly applied to the cold metal surface. The frozen sample on the plate was subsequently lyophilized, sputtered with platinum and analyzed.
Dynamic light scattering was measured on an ALV/CGS-8F platform based goniometer system equipped with an ALV/-5000/E correlator and an Argon-Ion laser with a wavelength of […] (35 mW) at scattering angles between 30° and 150°. An ALV-5000/E correlator calculates the photon intensity autocorrelation function g2(t). All experiments were performed at T=293 K and evaluated by second order cumulant fit (considering previously determined spherical particle shape by SEM). Polydispersities were determined by the contin-algorithm at all angles and never exceeded 0.11. […] For both angular and concentration dependence, a hydrodynamic radius was calculated from the Stokes-formula
[formula] where rh is the hydrodynamic radius of spherical particles, D is the diffusion constant, kB is the Boltzmann constant, T is the absolute temperature and is the viscosity of water. A graph of 1/rh versus angle (concentration) was plotted and the hydrodynamic radius (rh0) was calculated by extrapolating both concentration and angle measurements to zero. […]

[4] = Estimating bead volume and density of CD3ac precipitates; format: physicochemical
Experimental: In order to estimate the density of CD3ac precipitates, beads (307.5×10^−6 M CD3ac starting concentration) were prepared large enough to exceed the diffraction limit of visible light. A low concentration of RB (10×10^−6 M) was co-precipitated to allow an estimate of the bead diameter by confocal fluorescence microscopy (1.35 μm) and facilitate counting on a hemacytometer (Hausser Scientific). An average of 72 beads were counted in an observed cell volume of 250,000 μm^3 that equals a bead volume fraction of 3.71×10^−4. A solution of 50 μL 307.5×10^−6M CD3ac thus contains a total bead volume of […] and the density of CD3ac can be determined (ρCD3ac≈1.35 g/cm^3). The logarithmic partition coefficient of RB in an aqueous solution of CD3ac beads was calculated according to […]

[5] = Particle diameter and corona thickness by negative staining TEM; format: physicochemical
Experimental: PNPs were assembled by mixing stock solutions of CD3ac, Tfn-AF568 and Flutax-2 to yield final concentrations of 123 μM CD3ac, 6 μM Flutax-2 and 10 μg/mL Tfn-AF568 in H2O:EtOH (1:1, v/v). Emulsification was induced by a first dilution step (1:1, H2O) followed by an equilibration period of 15 minutes before the ethanol content was further reduced to […] by the second dilution step (1:1, H2O). 50 μL aliquots of the resulting suspension were applied to 24-well sitting drop crystallization plates (Hampton Research, Cryschem) and counter-evaporated 3 times against 1 mL H2O during six hours.
PNP samples were prepared as described above. 5 μL of PNPs suspended in H2O were applied to a carbon film coated copper grid (400 square mesh, Electron Microscopy Sciences) and dried. The sample was stained with 10 μL 1% uranyl acetate during one minute. Excess stain was removed with a filter paper and subsequently applied to a Tecnai G^2 Spirit BioTWIN.

[6] = test system: CHO cells; test: Release of encapsulated Flutax-2 into the cytosol of CHO cells; format: cell-based, Chinese hamster; details: 24 hours, 0.67 μM Flutax-2
Experimental: To assess whether binding and internalization of PNPs can result in the selective import of small molecule cargo, the release of encapsulated Flutax-2 into cells was analyzed 24 hours post addition of PNPFlutax-2^Tfn-AF568 into the cells (FIGS. 13A-13I). Flutax-2 is an Oregon Green (OG) modified derivative of paclitaxel(19), a mitotic inhibitor applied in cancer therapy (20). Unlike its unlabeled form, Flutax-2 is charged and water-soluble at the applied concentration and does consequently not permeate cell membranes. Thus, it was used a model compound to investigate efficiency and specificity of small molecule delivery by PNPs to the cytosol. […] Flutax-2 emission in the cytosol was averaged to quantify the amount of delivered compound into the cells.
CHO cell lines were grown in F12:DMEM 1:1 (Cellgro, 10-090) plus 10% fetal bovine serum (Gibco). […] Samples were fixed with 3% paraformaldehyde (Sigma, P6148) in PBS, mounted on glass slides using fluorescent mounting medium (Dako, 53023) and analyzed within 24 hours.
Fixed cells were analyzed on a Nikon Ti inverted microscope equipped with 60× Plan Apo NA 1.4 objective lens. DAPI fluorescence was excited with a 360/40 filter and collected with a 460/50 emission filter. Oregon Green fluorescence was excited with a 360/40 and collected with a 480/40 emission filter. […]

CC(C)C[C@@H](NC(=O)[C@H](Cc1c[nH]c2ccccc12)NC(=O)[C@@H](CC(C)C)NC(=O)[C@H](Cc1c[nH]c2ccccc12)NC(=O)[C@@H](CC(C)C)NC(=O)[C@H](Cc1c[nH]c2ccccc12)NC(=O)[C@@H](N)CCCCN)C(=O)N[C@@H](Cc1c[nH]c2ccccc12)C(N)=O (racemic) [CD1, H-LK-LW-DL-LW-DL-LW-DL-LW-NH2]
solubility in water [1]: water soluble

CC(C)C[C@@H](NC(=O)[C@H](Cc1c[nH]c2ccccc12)NC(=O)[C@@H](CC(C)C)NC(=O)[C@H](Cc1c[nH]c2ccccc12)NC(=O)[C@@H](CC(C)C)NC(=O)[C@H](Cc1c[nH]c2ccccc12)NC(=O)[C@H](CCCCN)NC(=O)[C@@H](N)CCCCN)C(=O)N[C@@H](Cc1c[nH]c2ccccc12)C(N)=O (racemic) [CD2, H-LK-LK-LW-DL-LW-DL-LW-DL-LW-NH2]
solubility in water [1]: water soluble

CC(C)C[C@@H](NC(=O)[C@H](Cc1c[nH]c2ccccc12)NC(=O)[C@@H](CC(C)C)NC(=O)[C@H](Cc1c[nH]c2ccccc12)NC(=O)[C@@H](CC(C)C)NC(=O)[C@H](Cc1c[nH]c2ccccc12)NC(=O)[C@H](CCCCN)NC(=O)[C@H](CCCCN)NC(=O)[C@@H](N)CCCCN)C(=O)N[C@@H](Cc1c[nH]c2ccccc12)C(N)=O (racemic) [CD3, H-LK-LK-LK-LW-DL-LW-DL-LW-DL-LW-NH2]
solubility in water [1]: water soluble | particle stability at increasing / physiological salt strength [2]: not stable | particle stability in pure water [2]: stable

CC(=O)NCCCC[C@H](NC(C)=O)C(=O)N[C@@H](CCCCNC(C)=O)C(=O)N[C@@H](CCCCNC(C)=O)C(=O)N[C@@H](Cc1c[nH]c2ccccc12)C(=O)N[C@H](CC(C)C)C(=O)N[C@@H](Cc1c[nH]c2ccccc12)C(=O)N[C@H](CC(C)C)C(=O)N[C@@H](Cc1c[nH]c2ccccc12)C(=O)N[C@H](CC(C)C)C(=O)N[C@@H](Cc1c[nH]c2ccccc12)C(N)=O (racemic) [CD3ac, Ac-LK(Ac)-LK(Ac)-LK(Ac)-LW-DL-LW-DL-LW-DL-LW-NH2]
solubility in water [1]: insoluble | solubility in organic solvents ([1]; EtOH, iPrOH, DMSO, DMF, MeCN): readily dissolves | particle radius [3]: about 260 nm | bead diameter ([4]; 307.5×10^−6 M CD3ac starting concentration, 10×10^−6 M RB, confocal fluorescence microscopy): 1.35 μm | density of CD3ac precipitates (ρCD3ac) ([4]; from bead count and bead volume fraction): ≈ 1.35 g/cm^3 | thickness of the protein corona [5]: 9.0+/−2.1 nm | average particle diameter ([5]; assembled in the absence of Tfn-AF568): 100 nm | average particle diameter ([5]; assembled in the presence of Tfn-AF568, excluding corona): 51 nm

CC(C)C[C@@H](NC(=O)[C@H](Cc1c[nH]c2ccccc12)NC(=O)[C@@H](CC(C)C)NC(=O)[C@H](Cc1c[nH]c2ccccc12)NC(=O)[C@@H](CC(C)C)NC(=O)[C@H](Cc1c[nH]c2ccccc12)NC(=O)[C@H](CCCCN)NC(=O)[C@H](CCCCN)NC(=O)[C@H](CCCCN)NC(=O)[C@@H](N)CCCCN)C(=O)N[C@@H](Cc1c[nH]c2ccccc12)C(N)=O (racemic) [CD4, H-LK-LK-LK-LK-LW-DL-LW-DL-LW-DL-LW-NH2]
solubility in water [1]: water soluble

Flutax-2
Flutax-2 emission in the cytosol [6]: could not be detected

From US8828928B2, “Amphiphilic peptides and peptide particles” (President and Fellows of Harvard College, priority 2011, dated 2014)
